Measured values reported in patent US9108941B2, “Griseofulvin analogues for the treatment of cancer by inhibition of centrosomal clustering” (DEUTSCHES KREBSFORSCHUNGSZENTRUM STIFTUNG DES OEFFENTLICHEN …, priority 2008, dated 2015).

Key:
[1] = test system: GFP-α-tubulin expressing SCC114 cells; experiment: Treatment of GFP-α-tubulin expressing SCC114 cells with griseofulvin analogues (inhibition of centrosomal clustering); type: cell-based; settings: Homo sapiens, Table 1, analogues diluted 100 micromolar to 10 nanomolar
Description: Cell Culture. All cell lines were cultured in Dulbecco's modified Eagle's Medium (DMEM; PAA Laboratories, Pasching, Austria) supplemented with 10% FCS (PAA). SCC114 cells stably expressing GFP-α-tubulin were generated by transfection (Eugene 6, Roche Diagnostics, Mannheim, Germany) of the transgene in pEGFP-C1 (Clontech, Heidelberg, Germany) and maintained under selective pressure by addition of geniticin (Invitrogen, Karlsruhe, Germany) Primary normal human epidermal keratinocytes (NHEK; PromoCell, Heidelberg, Germany) were cultured in Keratinocyte Growth Medium 2 (PromoCell). When indicated a griseofulvin analogue was added to the culture medium. The griseofulvin analogue was dissolved in DMSO (Sigma). In all experiments, the final DMSO concentration was 0.1%.
Treatment of GFP-α-tubulin expressing SCC114 cells with griseofulvin analogues. Analogues were dissolved in DMSO/water and diluted to span a concentration range of 100 micromolar to 10 nanomolar.

## COc1cc(OC)c2c(c1Cl)O[C@]1(C2=O)C(OCc2ccccc2I)=CC(=O)C[C@H]1C [Compound 4, (2S,6′R)-(7-Chloro-4,6-dimethoxy-benzofuran-3-one)-2-spiro-1′-(2′-(2-iodobenzyloxy)-6′-methyl-cyclohex-2′-ene-4′-one)]
[1]
  IC50: 5.8 µM
other
  melting point: 167 to 169 °C

## CCCOC1=C(I)C(=O)C[C@@H](C)[C@]12Oc1c(Cl)c(OC)cc(OC)c1C2=O [Compound 11, (2S,6′R)-(7-Chloro-4,6-dimethoxy-benzofuran-3-one)-2-spiro-1′-(3′-iodo-6′-methyl-2′-propoxy-cyclohex-2′-ene-4′-one)]
[1]
  IC50: 2.1 µM
other
  melting point: 98 to 100 °C

## COc1cc(OC)c2c(c1Cl)O[C@]1(C2=O)C(OCc2ccc(CO)cc2)=CC(=O)C[C@H]1C [Compound 6, (2S,6′R)-(7-Chloro-4,6-dimethoxy-benzofuran-3-one)-2-spiro-1′-(6′-methyl-2′-(4-hydroxymethylbenzyloxy)-cyclohex-2′-ene-4′-one)]
[1]
  IC50: 1.2 µM

## COc1cc(OC)c2c(c1Cl)O[C@]1(C2=O)C(OCc2ccc(C)cc2)=CC(=O)C[C@H]1C [Compound 5, (2S,6′R)-(7-Chloro-4,6-dimethoxy-benzofuran-3-one)-2-spiro-1′-(6′-methyl-2′-(4-methylbenzyloxy)-cyclohex-2′-ene-4′-one)]
[1]
  IC50: 0.9 µM
other
  melting point: 176 to 178 °C

## COc1cc(OC)c2c(c1Cl)O[C@]1(C2=O)C(OCc2ncc(C)c([N+](=O)[O-])c2C)=CC(=O)C[C@H]1C [Compound 8, (2S,6′R)-(7-Chloro-4,6-dimethoxy-benzofuran-3-one)-2-spiro-1′-(6′-methyl-2′-((3,5-dimethyl-4-nitro-pyrid-2-yl)methyloxy)-cyclohex-2′-ene-4′-one)]
[1]
  IC50: 9.1 µM

## COc1cc(OC)c2c(c1Cl)O[C@]1(C2=O)C(OCc2ccc(CBr)cc2)=CC(=O)C[C@H]1C [Compound 7, (2S,6′R)-(7-Chloro-4,6-dimethoxy-benzofuran-3-one)-2-spiro-1′-(6′-methyl-2′-(4-bromo-methylbenzyloxy)-cyclohex-2′-ene-4′-one)]
[1]
  IC50: 4.7 µM

## COc1cc(OC)c2c(c1Cl)O[C@]1(C2=O)C(Oc2ccccc2)=CC(=O)C[C@H]1C [Compound 10, (2S,6′R)-(7-Chloro-4,6-dimethoxy-benzofuran-3-one)-2-spiro-1′-(6′-methyl-2′-phenoxy-cyclohex-2′-ene-4′-one)]
[1]
  IC50: 1.5 µM

## COc1cc(OC)c2c(c1Cl)O[C@]1(C2=O)C(OCc2ccc(-c3ccccc3)cc2)=CC(=O)C[C@H]1C [Compound 9, (2S,6′R)-(7-Chloro-4,6-dimethoxy-benzofuran-3-one)-2-spiro-1′-(2′-(4-biphenylmethoxy)-6′-methyl-cyclohex-2′-ene-4′-one)]
[1]
  IC50: 3.2 µM

## COc1cc(OC)c2c(c1Cl)O[C@]1(C2=O)C(OCc2cccc(I)c2)=CC(=O)C[C@H]1C [Compound 3, (2S,6′R)-(7-Chloro-4,6-dimethoxy-benzofuran-3-one)-2-spiro-1′-(2′-(3-iodobenzyloxy)-6′-methyl-cyclohex-2′-ene-4′-one)]
other
  melting point: 171 to 174 °C

## COc1cc(OC)c2c(c1Cl)O[C@]1(C2=O)C(OCc2ccc(Cl)cc2)=CC(=O)C[C@H]1C [Compound 1, (2S,6′R)-(7-Chloro-4,6-dimethoxy-benzofuran-3-one)-2-spiro-1′-(2′-(4-chlorobenzyloxy)-6′-methyl-cyclohex-2′-ene-4′-one)]
[1]
  IC50: 3.4 µM
other
  melting point: 173 to 175 °C

## COc1cc(OC)c2c(c1Cl)O[C@]1(C2=O)C(OCc2ccc(I)cc2)=CC(=O)C[C@H]1C [Compound 2, (2S,6′R)-(7-Chloro-4,6-dimethoxy-benzofuran-3-one)-2-spiro-1′-(2′-(4-iodobenzyloxy)-6′-methyl-cyclohex-2′-ene-4′-one)]
[1]
  IC50: 3.3 µM
other
  melting point: 166 to 168 °C
